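How tested: cells in 96-well plates exposed to compound for 48 hours at five concentrations. Here, GI50 denotes the concentration required for 50% inhibition of growth.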 The source made the active and inactive calls. No stated cut-off is given here; in the data, active = GI50 up to about 1.1 µM and inactive = higher.
What was measured:
Assay in all cases: inhibition of tumour cell growth, NCI panel, 48 h
HCT-15 = system: HCT-15
DMS-114 = system: DMS-114
SR = system: SR
HOP-18 = system: HOP-18
DMS-273 = system: DMS-273
DLD-1 = system: DLD-1
TK-10 = system: TK-10
HL-60 = system: HL-60
HT-29 = system: HT-29
HCT-116 = system: HCT-116
HOP-92 = system: HOP-92
RPMI-8226 = system: RPMI-8226
SK-MEL-28 = system: SK-MEL-28
OVCAR-5 = system: OVCAR-5
SK-OV-3 = system: SK-OV-3
LOX IMVI = system: LOX IMVI
SK-MEL-2 = system: SK-MEL-2
SW-620 = system: SW-620
RXF 393 = system: RXF 393
COLO 205 = system: COLO 205
ACHN = system: ACHN
CCRF-CEM = system: CCRF-CEM
CAKI-1 = system: CAKI-1
Malme-3M = system: Malme-3M
OVCAR-4 = system: OVCAR-4
UACC-257 = system: UACC-257
U-251 = system: U-251
NCI-H522 = system: NCI-H522
HCC 2998 = system: HCC 2998
UO-31 = system: UO-31
NCI-H460 = system: NCI-H460
KM12 = system: KM12
SK-MEL-5 = system: SK-MEL-5
A498 = system: A498
SF-295 = system: SF-295
SNB-19 = system: SNB-19
IGROV-1 = system: IGROV-1
SNB-75 = system: SNB-75
OVCAR-3 = system: OVCAR-3
EKVX = system: EKVX
KM-20L2 = system: KM-20L2
SNB-78 = system: SNB-78
HOP-62 = system: HOP-62
MOLT-4 = system: MOLT-4
OVCAR-8 = system: OVCAR-8
SN12C = system: SN12C
K562 = system: K562
NCI-H23 = system: NCI-H23
NCI-H226 = system: NCI-H226
M14 = system: M14
SF-539 = system: SF-539
SF-268 = system: SF-268
A549 = system: A549
786-0 = system: 786-0
UACC-62 = system: UACC-62
LXFL 529 = system: LXFL 529

CCOC(=O)CNC(=O)C(CSC(=O)N(C)O)NC(=O)CCC(N)C(=O)O (stereo not drawn)
GI50 (HCT-15): > 1000 µM | GI50 (DMS-114): 0.968 µM (active) | GI50 (SR): 0.644 µM (active) | GI50 (HOP-18): 462 µM (inactive) | GI50 (DMS-273): 0.75 µM (active) | GI50 (DLD-1): 0.656 µM (active) | GI50 (TK-10): 655 µM (inactive) | GI50 (HL-60): 659 µM (inactive) | GI50 (HT-29): 0.891 µM (active) | GI50 (HCT-116): 1.75 µM (inactive) | GI50 (HOP-92): 348 µM (inactive) | GI50 (RPMI-8226): 908 µM (inactive) | GI50 (SK-MEL-28): 927 µM (inactive) | GI50 (OVCAR-5): 436 µM (inactive) | GI50 (SK-OV-3): 684 µM (inactive) | GI50 (LOX IMVI): 0.658 µM (active) | GI50 (SK-MEL-2): 378 µM (inactive) | GI50 (SW-620): > 1000 µM (inactive) | GI50 (RXF 393): 498 µM (inactive) | GI50 (COLO 205): 0.735 µM (active) | GI50 (ACHN): 653 µM (inactive) | GI50 (CCRF-CEM): 1.02 µM (active)

FC(F)(F)c1ccc(/C=N/C23CC4CC(CC(C4)C2)C3)cc1
GI50 (HCT-15): > 100 µM | GI50 (CAKI-1): > 100 µM (inactive) | GI50 (Malme-3M): > 100 µM (inactive) | GI50 (OVCAR-4): > 100 µM (inactive) | GI50 (DMS-114): > 100 µM (inactive) | GI50 (UACC-257): > 100 µM (inactive) | GI50 (U-251): > 100 µM (inactive) | GI50 (NCI-H522): > 100 µM (inactive) | GI50 (HCC 2998): > 100 µM (inactive) | GI50 (SR): > 100 µM (inactive) | GI50 (UO-31): > 100 µM (inactive) | GI50 (NCI-H460): > 100 µM (inactive) | GI50 (KM12): > 100 µM (inactive) | GI50 (SK-MEL-5): > 100 µM (inactive) | GI50 (DMS-273): > 100 µM (inactive) | GI50 (A498): > 100 µM (inactive) | GI50 (SF-295): > 100 µM (inactive) | GI50 (SNB-19): > 100 µM (inactive) | GI50 (IGROV-1): > 100 µM (inactive) | GI50 (SNB-75): > 100 µM (inactive) | GI50 (OVCAR-3): > 100 µM (inactive) | GI50 (TK-10): > 100 µM (inactive) | GI50 (EKVX): > 100 µM (inactive) | GI50 (HL-60): > 100 µM (inactive) | GI50 (HT-29): > 100 µM (inactive) | GI50 (HCT-116): > 100 µM (inactive) | GI50 (HOP-92): > 100 µM (inactive) | GI50 (RPMI-8226): > 100 µM (inactive) | GI50 (KM-20L2): > 100 µM (inactive) | GI50 (SNB-78): > 100 µM (inactive) | GI50 (SK-MEL-28): > 100 µM (inactive) | GI50 (OVCAR-5): > 100 µM (inactive) | GI50 (SK-OV-3): > 100 µM (inactive) | GI50 (HOP-62): > 100 µM (inactive) | GI50 (MOLT-4): > 100 µM (inactive) | GI50 (OVCAR-8): > 100 µM (inactive) | GI50 (SN12C): > 100 µM (inactive) | GI50 (K562): > 100 µM (inactive) | GI50 (NCI-H23): > 100 µM (inactive) | GI50 (NCI-H226): > 100 µM (inactive) | GI50 (M14): > 100 µM (inactive) | GI50 (LOX IMVI): > 100 µM (inactive) | GI50 (SK-MEL-2): > 100 µM (inactive) | GI50 (SW-620): > 100 µM (inactive) | GI50 (RXF 393): > 100 µM (inactive) | GI50 (COLO 205): > 100 µM (inactive) | GI50 (ACHN): > 100 µM (inactive) | GI50 (SF-539): > 100 µM (inactive) | GI50 (SF-268): > 100 µM (inactive) | GI50 (A549): > 100 µM (inactive) | GI50 (786-0): > 100 µM (inactive) | GI50 (UACC-62): > 100 µM (inactive) | GI50 (CCRF-CEM): > 100 µM (inactive)

O=C(NN1C(=O)C(Cl)C1c1ccccc1O)c1ccccc1O (stereo not drawn)
GI50 (Malme-3M): 13.9 µM (inactive) | GI50 (OVCAR-4): 22.5 µM (inactive) | GI50 (DMS-114): 6.82 µM (inactive) | GI50 (UACC-257): 22.2 µM (inactive) | GI50 (U-251): 16.2 µM (inactive) | GI50 (NCI-H522): 29 µM (inactive) | GI50 (SR): 17.8 µM (inactive) | GI50 (UO-31): 21.3 µM (inactive) | GI50 (NCI-H460): 5.33 µM (inactive) | GI50 (KM12): 7.31 µM (inactive) | GI50 (SK-MEL-5): 29.4 µM (inactive) | GI50 (SF-295): 26.8 µM (inactive) | GI50 (SNB-19): 0.365 µM (active) | GI50 (LXFL 529): 41.4 µM (inactive) | GI50 (IGROV-1): 30.6 µM (inactive) | GI50 (SNB-75): 49.9 µM (inactive) | GI50 (OVCAR-3): 3.13 µM (inactive) | GI50 (TK-10): 47.5 µM (inactive) | GI50 (EKVX): 29.4 µM (inactive) | GI50 (HL-60): 6.11 µM (inactive) | GI50 (HT-29): 6.61 µM (inactive) | GI50 (HCT-116): 3.69 µM (inactive) | GI50 (HOP-92): > 100 µM (inactive) | GI50 (RPMI-8226): 12.5 µM (inactive) | GI50 (KM-20L2): 4.51 µM (inactive) | GI50 (SK-MEL-28): 22.3 µM (inactive) | GI50 (SK-OV-3): 16.1 µM (inactive) | GI50 (HOP-62): 29 µM (inactive) | GI50 (MOLT-4): 23.2 µM (inactive) | GI50 (OVCAR-8): 26.4 µM (inactive) | GI50 (SN12C): 89.5 µM (inactive) | GI50 (K562): 32.4 µM (inactive) | GI50 (NCI-H23): 42.5 µM (inactive) | GI50 (M14): 18.3 µM (inactive) | GI50 (SK-MEL-2): 19.8 µM (inactive) | GI50 (SW-620): 32.7 µM (inactive) | GI50 (RXF 393): 63.5 µM (inactive) | GI50 (COLO 205): 21.4 µM (inactive) | GI50 (SF-539): 16.3 µM (inactive) | GI50 (SF-268): 44.1 µM (inactive) | GI50 (A549): 17.8 µM (inactive) | GI50 (UACC-62): 27.9 µM (inactive) | GI50 (CCRF-CEM): 5.12 µM (inactive)
